Patent publication US10080812B2, “Radioactive iodine labeled pyrido[1,2-a]benzoimidazole derivative compound” (priority 2015, dated 2018)
“And” between values parts separate entries of the source, which are not always exact repeats. Identical values can stand only once.

Key:
tau = assay: In vitro autoradiography using autopsied brain tissue sections of an Alzheimer's disease patient (temporal lobe); assay type: binding, human; details: for autoradiography images compared with [125I]BIP-1 and [125I]BIP-2: temporal and frontal lobe sections; for radioactivity accumulation in the brain gray matter of the temporal lobe / binding affinity for tau: AD brain section, 370 kBq/mL, 2 h room temperature; for nonspecific binding to the brain white matter: AD brain sections
Method: (§1) Autopsied brain tissue sections of an Alzheimer's disease (AD) patient (sections from a frontal lobe site and a temporal lobe site, 6 μm) were used, which were provided from Graduate School of Medicine, Kyoto University. Deparaffinization treatment was performed by washing with xylene (15 min×2), ethanol (1 min×2), a 90 vol % aqueous ethanol solution (1 min×1), an 80 vol % aqueous ethanol solution (1 min×1), a 70 vol % aqueous ethanol solution (1 min×1), and purified water (2.5 min×2). A 10 vol % or 50 vol % aqueous ethanol solution of each of [^125I]BIP-1 to -4 (370 kBq/mL) obtained by the method shown in Example 9 was added thereto, and the tissue sections were incubated at room temperature for 2 hours. The tissue sections were washed with a 50 vol % aqueous ethanol solution (2 hr×1), then exposed to an imaging plate (BAS-SR2025 manufactured by Fujifilm Corp.) for 12 hours, and analyzed using a bioimaging analyzer (bioimaging analyzer BAS-5000 manufactured by Fujifilm Corp.). Multi Gauge manufactured by Fujifilm Corp. was used in quantitative analysis.
Senile plaque (SP) and neurofibrillary tangle (NFT) were stained using sections near the brain sections used in autoradiography. An anti-Aβ1-42 monoclonal antibody (BC05, manufactured by Wako Pure Chemical Industries, Ltd.) was used as a primary antibody in the immunostaining of SP, and an anti-phosphorylated tau monoclonal antibody (AT8, manufactured by Thermo Fisher Scientific Inc.) was used as an antibody in the immunostaining of NFT. Deparaffinization treatment was performed by washing with xylene (15 min×2), ethanol (1 min×2), a 90 vol % aqueous ethanol solution (1 min×1), an 80 vol % aqueous ethanol solution (1 min×1), a 70 vol % aqueous ethanol solution (1 min×1), and purified water (2.5 min×2). The antigens were retrieved by autoclaving (15 min) in a 0.01 mol/L citrate buffer solution (pH 6.0) and formic acid treatment (5 min). The tissue sections were washed with running water (5 min) and then washed with PBS-Tween 20 (2 min×1). The tissue sections were reacted with primary antibody solutions at room temperature for 1 hour and then washed with PBS-Tween 20 (5 min×3). The tissue sections were reacted with Histofine Simple Stain MAX-PO (MULTI) (manufactured by Nichirei Biosciences Inc.) at room temperature for 30 minutes and then washed with PBS-Tween 20 (3 min×3) and TBS (5 min×1). Finally, the tissue sections were reacted with a DAB solution at room temperature for 1 minute. The tissue sections were washed with distilled water (1 min×1) to terminate the reaction. The brain tissue sections were mounted on slides and then observed under a microscope (BZ-9000 manufactured by Keyence Corporation).

amyloid β protein (Aβ) = molecular target: T1, amyloid β protein (Aβ) (Homo sapiens, UniProt P05067); assay: In vitro autoradiography using autopsied brain tissue sections of an Alzheimer's disease patient (frontal lobe); assay type: binding; details: for radioactivity accumulation in the frontal lobe section / binding affinity for the amyloid β protein (Aβ): AD brain section, 370 kBq/mL, 2 h room temperature
T1 construct: from tissue; host or cells: autopsied AD patient brain, frontal lobe, 6 µm paraffin sections (Graduate School of Medicine, Kyoto University)
T1 sequence (P05067 672-713 limits assumed): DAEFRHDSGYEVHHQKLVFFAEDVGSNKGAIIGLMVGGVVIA
Method: as §1
Senile plaque (SP) and neurofibrillary tangle (NFT) were stained using sections near the brain sections used in autoradiography. An anti-Aβ1-42 monoclonal antibody (BC05, manufactured by Wako Pure Chemical Industries, Ltd.) was used as a primary antibody in the immunostaining of SP, and an anti-phosphorylated tau monoclonal antibody (AT8, manufactured by Thermo Fisher Scientific Inc.) was used as an antibody in the immunostaining of NFT. Deparaffinization treatment was performed by washing with xylene (15 min×2), ethanol (1 min×2), a 90 vol % aqueous ethanol solution (1 min×1), an 80 vol % aqueous ethanol solution (1 min×1), a 70 vol % aqueous ethanol solution (1 min×1), and purified water (2.5 min×2). The antigens were retrieved by autoclaving (15 min) in a 0.01 mol/L citrate buffer solution (pH 6.0) and formic acid treatment (5 min). The tissue sections were washed with running water (5 min) and then washed with PBS-Tween 20 (2 min×1). […]

[1] = Comparison of intracerebral kinetics in mice; assay type: in vivo, ddY male mice; details: for radioactivity in the brain: i.v. tail vein; for Brain2 min/60 min: ratio of radioactivity in the brain between 2 and 60 min after administration
Method: (§2) Each of [^125I]BIP-1 to -4 obtained by the method shown in Example 9 was diluted with saline containing 10 vol % ethanol and 0.1 vol % Tween 80. Each of [^125I]BIP-1 to -4 was administered to a group of 5-week-old ddY male mice (26 to 28 g; each group involved 5 mice) from the tail veins thereof at 25.0 to 37.5 kBq (100 μL) per mouse. After 2, 10, 30, or 60 minutes, the mice were slaughtered. After blood collection, the brains were taken out, and their weights and radioactivity were measured. As for [^125I]BIP-3, the principal organs were also excised, and their weights and radioactivity were measured.

[2] = In vivo radioactivity distribution experiment; parameters: species or system ddY male mice; details: mouse; for radioactivity in Blood / radioactivity in Brain / radioactivity in Heart / radioactivity in Intestine / radioactivity in Kidneys / radioactivity in Liver / radioactivity in Lungs / radioactivity in Pancreas / radioactivity in Spleen / radioactivity in Stomach / radioactivity in Thyroid gland: i.v.
Method: as §2

[3] = Stability evaluation in plasma; assay type: in vitro ADME, ddY mouse; details: 37° C., 1 hour
Method: Blood was collected from the heart of a ddY mouse (5 weeks old, body weight: 25 to 28 g) under anesthesia with isoflurane. The collected blood was fractionated by centrifugation at 4000×g for 10 minutes to recover a supernatant. [^125I]BIP-3 obtained by the method shown in Example 9 (188 kBq, 10.0 μL, ethanol solution) and the mouse plasma sample (200 μL) were mixed. The mixture was incubated at 37° C. for 1 hour, and acetonitrile (400 μL) was added thereto, followed by fractionation by centrifugation at 4000×g for 10 minutes. The supernatant was recovered, treated with Cosmonice Filter (S) (0.45 μm, 4 mm) (Nacalai Tesque, Inc.), and then analyzed by reverse phase HPLC. Analytical conditions for HPLC were the same as the conditions used in Example 9.

[4] = Log P value measurement (1-octanol/phosphate buffer); assay type: physicochemical; details: 1-octanol / 0.1 mol/L phosphate buffer solution pH 7.4
Method: Each of [^125I]BIP-1 to -4 (125 kBq) obtained by the method shown in Example 9 was added to a centrifuge tube containing 1-octanol (3.00 mL) and a 0.1 mol/L phosphate buffer solution (pH 7.4, 3.00 mL), vortexed for 2 minutes, and then centrifuged at 4,000×g for 10 minutes. 500 μL of a solution was collected from each layer, and the radioactivity thereof was then measured. A partition coefficient was determined from the 1-octanol/phosphate buffer solution ratio of radioactivity.

[5] = mouse, 2 min after administration
[6] = mouse, 10 min after administration
[7] = mouse, 30 min after administration
[8] = mouse, 60 min after administration

## [125I]c1ccc2c(c1)nc1ccccn12 [[^125I]BIP-3, 7-[^125I]iodobenzo[4,5]imidazo[1,2-a]pyridine]
tau
  autoradiography images compared with [125I]BIP-1 and [125I]BIP-2: images equivalent to [^125I]BIP-1 and [^125I]BIP-2
tau; temporal lobe sites e-j, compared with frontal lobe
  radioactivity accumulation to the temporal lobe (quantitative analysis): higher radioactivity accumulation
tau; temporal lobe, AT8 and BC05 immunostaining
  radioactivity accumulation on temporal lobe section compared with immunostaining of tau and Aβ: consistent with the accumulation of tau
Amyloid β protein (Aβ); frontal lobe sites a-d, only Aβ accumulates
  radioactivity accumulation to the frontal lobe (quantitative analysis): low radioactivity accumulation
[1]; [5]
  radioactivity in the brain: 4.74 % ID/g
[1]; [6]
  radioactivity in the brain: 0.65 % ID/g
[1]; [7]
  radioactivity in the brain: 0.12 % ID/g
[1]; [8]
  radioactivity in the brain: 0.06 % ID/g
[1]; mouse, i.v., 2-60 min
  intracerebral kinetics: favorable intracerebral kinetics
[1]
  Brain2 min/60 min: 79.0
[2]; 2 min
  radioactivity in Blood: 5.20 (0.44) % ID/g
  radioactivity in Brain: 4.74 (0.57) % ID/g
  radioactivity in Heart: 7.66 (1.21) % ID/g
  radioactivity in Intestine: 5.41 (0.62) % ID/g
  radioactivity in Kidneys: 23.7 % ID/g and 23.7 (2.44) % ID/g
  radioactivity in Liver: 19.9 % ID/g and 19.9 (1.39) % ID/g
  radioactivity in Lungs: 29.7 (4.63) % ID/g
  radioactivity in Pancreas: 5.36 (0.91) % ID/g
  radioactivity in Spleen: 4.76 (0.39) % ID/g
  radioactivity in Stomach: 2.70 (0.56) % ID
  radioactivity in Thyroid gland: 0.09 (0.03) % ID
[2]; 10 min
  radioactivity in Blood: 2.94 (0.41) % ID/g
  radioactivity in Brain: 0.65 (0.07) % ID/g
  radioactivity in Heart: 1.66 (0.75) % ID/g
  radioactivity in Intestine: 11.6 (2.43) % ID/g
  radioactivity in Kidneys: 12.2 (1.55) % ID/g
  radioactivity in Liver: 14.4 (2.14) % ID/g
  radioactivity in Lungs: 6.32 (1.16) % ID/g
  radioactivity in Pancreas: 1.49 (0.47) % ID/g
  radioactivity in Spleen: 1.34 (0.28) % ID/g
  radioactivity in Stomach: 6.73 (1.64) % ID
  radioactivity in Thyroid gland: 0.06 (0.02) % ID
[2]; 30 min
  radioactivity in Blood: 1.30 (0.16) % ID/g
  radioactivity in Brain: 0.12 (0.01) % ID/g
  radioactivity in Heart: 0.97 (0.26) % ID/g
  radioactivity in Intestine: 21.4 (5.69) % ID/g
  radioactivity in Kidneys: 10.3 (5.11) % ID/g
  radioactivity in Liver: 6.29 (0.45) % ID/g
  radioactivity in Lungs: 1.91 (0.29) % ID/g
  radioactivity in Pancreas: 0.78 (0.47) % ID/g
  radioactivity in Spleen: 0.58 (0.16) % ID/g
  radioactivity in Stomach: 5.34 (1.26) % ID
  radioactivity in Thyroid gland: 0.13 (0.03) % ID
[2]; 60 min
  radioactivity in Blood: 1.11 (0.53) % ID/g
  radioactivity in Brain: 0.06 (0.01) % ID/g
  radioactivity in Heart: 0.83 (0.24) % ID/g
  radioactivity in Intestine: 29.4 % ID/g and 29.4 (7.49) % ID/g
  radioactivity in Kidneys: 8.99 (4.47) % ID/g
  radioactivity in Liver: 5.25 (0.95) % ID/g
  radioactivity in Lungs: 1.45 (0.23) % ID/g
  radioactivity in Pancreas: 0.75 (0.30) % ID/g
  radioactivity in Spleen: 0.71 (0.11) % ID/g
  radioactivity in Stomach: 4.42 (2.43) % ID
  radioactivity in Thyroid gland: 0.22 % ID and 0.22 (0.03) % ID
[2]; up to 60 min after administration
  deiodination in living body (from thyroid gland uptake): marked deiodination does not occur
[3]
  stability in mouse plasma (reverse phase HPLC): only the peak of the parent compound was detected
[4]
  Log P: 3.22

## [125I]c1ccn2c(c1)nc1ccccc12 [[^125I]BIP-4, 3-[^125I]iodobenzo[4,5]imidazo[1,2-a]pyridine]
tau
  autoradiography images compared with [125I]BIP-1 and [125I]BIP-2: images equivalent to [^125I]BIP-1 and [^125I]BIP-2
[1]; [5]
  radioactivity in the brain: 2.37 % ID/g
[1]; [6]
  radioactivity in the brain: 0.36 % ID/g
[1]; [7]
  radioactivity in the brain: 0.09 % ID/g
[1]; [8]
  radioactivity in the brain: 0.06 % ID/g
[1]
  Brain2 min/60 min: 39.5
[4]
  Log P: 2.35

## [125I]c1ccc(-c2ccn3c(c2)nc2ccccc23)cc1 [[^125I]BIP-2, 3-(4-[^125I]iodophenyl)benzo[4,5]imidazo[1,2-a]pyridine]
tau; temporal lobe
  radioactivity accumulation in the brain gray matter of the temporal lobe / binding affinity for tau: have binding affinity for tau
tau
  nonspecific binding to the brain white matter: low nonspecific binding
Amyloid β protein (Aβ)
  radioactivity accumulation in the frontal lobe section / binding affinity for the amyloid β protein (Aβ): low
[1]; [5]
  radioactivity in the brain: 2.73 % ID/g
[1]; [6]
  radioactivity in the brain: 1.73 % ID/g
[1]; [7]
  radioactivity in the brain: 0.57 % ID/g
[1]; [8]
  radioactivity in the brain: 0.26 % ID/g
[1]
  Brain2 min/60 min: 10.4
[4]
  Log P: 2.61

## [125I]c1ccc2c(c1)nc1cc(-c3ccccc3)ccn12 [[^125I]BIP-1, 7-[^125I]iodo-3-phenylbenzo[4,5]imidazo[1,2-a]pyridine]
tau; temporal lobe
  radioactivity accumulation in the brain gray matter of the temporal lobe / binding affinity for tau: have binding affinity for tau
tau
  nonspecific binding to the brain white matter: low nonspecific binding
Amyloid β protein (Aβ)
  radioactivity accumulation in the frontal lobe section / binding affinity for the amyloid β protein (Aβ): low
[1]; [5]
  radioactivity in the brain: 3.51 % ID/g
[1]; [6]
  radioactivity in the brain: 2.14 % ID/g
[1]; [7]
  radioactivity in the brain: 0.65 % ID/g
[1]; [8]
  radioactivity in the brain: 0.23 % ID/g
[1]
  Brain2 min/60 min: 15.3
[4]
  Log P: 2.64
